≈ marks a conversion by molar mass, not a printed value.

Format in all cases: physicochemical
Data set [1] is described as follows: Hygroscopicity: water sorption and desorption by dynamic vapor sorption (DVS). The note with it: for humidity at which water is absorbed again / water content restored (conversion back to the hydrate): DVS and variable humidity XRPD. Here is the method:
In some embodiments, the crystalline form described herein is further characterized by is further characterized by a dynamic vapor sorption (DVS) profile. In some embodiments, a DVS is recorded according to the method as described herein with a cycle of 40-0-95-0-40% RH at 25° C.
Water sorption and desorption behaviors of Form A, Form C, Form D, and Form T were investigated by DVS at 25° C. with a cycle of 40-0-95-0-40% RH. Dm/dt was 0.002. Minimum equilibration time was 60 min. Maximum equilibration time was 360 min. XRPD was measured after DVS test to determine potential form change.

Data set [2] can be described thus: Variable humidity and temperature XRPD experiments. As for the experimental part:
Based on DVS and DSC results of Form C, Form C starts to loss water when humidity is below 30% or when temperature is higher than about 44° C. […] In order to determine identity of potential form changes after the dehydration and upon the solid-solid transition, variable humidity and variable temperature XRPD techniques were applied. XRPD patterns of the sample were measured online under 25° C./ambient environment (initial)-120° C./N2 protection-25° C./ambient environment-25° C./80% RH (40 min)-25° C./0% RH (15 h), and 25° C./ambient environment (initial)-250° C./N2 protection-25° C./ambient environment. […] Form L coverts back to Form C after exposure to 25° C./80% RH for 40 min.
Based on DVS and DSC results of Form D, Form D starts to loss water when humidity is below 10% or when temperature is higher than 46° C. In order to determine identity of the dehydration product, variable humidity and variable temperature XRPD techniques were applied. XRPD patterns of the sample were measured online with a temperature cycle of 25° C./ambient environment (initial)-130° C./N2 protection (10 min)-25° C./N2 protection-25° C./ambient environment (3h) and two water sorption and desorption cycles of 50% RH (initial)-90% RH (3h)-60% RH (2h)-40% RH (2h)-20% RH (3h)-10% RH (3h)-0% RH (6h)-10% RH (3h)-20% RH (3h)-50% RH at 25° C. […] (higher than dehydration temperature). Form S converts back to Form D after exposure to ambient condition for 3 h.
In order to investigate potential form change of Form A upon heating, variable temperature XRPD technique was applied. XRPD patterns of the sample were measured online with a temperature cycle of 25° C. (initial)-50° C./N2 protection-70° C./N2 protection-250° C./N2 protection-25° C./N2 protection-25° C./ambient condition (3h). […] Form A converts to Form U when temperature is 250° C., and Form U converts to Form T after cooling to 25° C.

Data set [3] can be described thus: Equilibrium solubility in FeSSIF and FaSSIF. The note with it: for XRPD of solid after solubility test / final pH / Solubility / impurity in solubility sample: 24 hours; for Solubility / solubility at 24 h: target concentration 1 mg/mL, HPLC method 1 or 2 (footnote); for impurity in solubility sample: no unit printed for impurity (column head mg/mL); for solubility at 24 h: 37 °C, thermodynamic from solid. As for the experimental part:
(§1) Solid part and liquid part were separated by filtration. Solubility was measured by HPLC. Solid part (wet cake) was investigated by XRPD.

The nature of data set [4]: Variable humidity and temperature XRPD experiments. The source holds these as a separate data set.
Data set [5] can be described thus: Equilibrium solubility in SGF (pH 2.0), 0.1 N HCl (pH 1.2) and phosphate buffer (pH 8.0). Conditions: solid from solubility study with Form A in 0.1 N HCl solution. Here is the method:
as §1

For the compound `Nc1nc(=O)n(-c2ccccc2Cl)c2nc(C(F)(F)F)ccc12` [Form C, 4-Amino-1-(2-chlorophenyl)-7-(trifluoromethyl)pyrido[2,3-d]pyrimidin-2(1H)-one], the “humidity below which the form starts to lose water” value in data set [1] (25° C.) is “below 30 % RH”. The “form change after the DVS test” value in data set [1] (XRPD after DVS) is “A mixture of Form L and Form C was obtained”. The “XRPD (XRPD method 2)” value in data set [2] (VT2 120° C./60% RH (10 min)) is “Form L”; in data set [2] (VT4 25° C./80% RH (40 min)), “Form C”; in data set [2] (VT6 25° C./60% RH (initial)), “Form C”; in data set [4] (VT1 25° C./60% RH (initial)), “Form C”; in data set [4] (VT7 250° C./60% RH (10 min)), “Solid state Form V”; in data set [4] (VT8 25° C./60% RH (final)), “Solid state Form V”. Moreover, the “temperature above which the form starts to lose water” value in data set [2] (based on DSC results) is “higher than 44 °C”. The “dehydration product (form obtained on loss of water)” value in data set [2] (low humidity or heating above the dehydration temperature) is listed as “Form L”. Moreover, the “XRPD of solid after solubility test” value in data set [3] (FaSSIF, pH 6.5, 37° C.) is “Form C”; in data set [3] (FeSSIF, pH 5.0, 37° C.) it was “Form C”. For the same compound, the “final pH” value is on record as 6.6 in data set [3] (FaSSIF, pH 6.5, 37° C.) and 5.2 in data set [3] (FeSSIF, pH 5.0, 37° C.). Further, the Solubility in data set [3] (FaSSIF, pH 6.5, 37° C.) was found to be 60 µg/mL (≈ 176 µM); in data set [3] (FeSSIF, pH 5.0, 37° C.), 170 µg/mL (≈ 499 µM). The “impurity in solubility sample” value is “no impurity” in data set [3] (FaSSIF, pH 6.5, 37° C.) and “no impurity” in data set [3] (FeSSIF, pH 5.0, 37° C.).
Take `Nc1nc(=O)n(-c2ccccc2Cl)c2nc(C(F)(F)F)ccc12` [Form E, 4-Amino-1-(2-chlorophenyl)-7-(trifluoromethyl)pyrido[2,3-d]pyrimidin-2(1H)-one]: the solubility at 24 h in data set [3] (pH 5, fessif, FeSSIF, pH 5.0, 37° C.) was found to be 140 µg/mL (≈ 411 µM); in data set [3] (pH 6.5, fassif, FaSSIF, pH 6.5, 37° C.), 60 µg/mL (≈ 176 µM). In addition, the “XRPD of solid after solubility test” value in data set [3] (FaSSIF, pH 6.5, 37° C.) was “Form E”; in data set [3] (FeSSIF, pH 5.0, 37° C.) it was “Form E”. For the same compound, the “final pH” value in data set [3] (FaSSIF, pH 6.5, 37° C.) was determined as 6.6; in data set [3] (FeSSIF, pH 5.0, 37° C.) it was 5.2.
For the compound `Nc1nc(=O)n(-c2ccccc2Cl)c2nc(C(F)(F)F)ccc12` [Form F, 4-Amino-1-(2-chlorophenyl)-7-(trifluoromethyl)pyrido[2,3-d]pyrimidin-2(1H)-one], in data set [3] (FaSSIF, pH 6.5, 37° C.), the “XRPD of solid after solubility test” value is given as “Form F” and the “final pH” value was 6.6. Besides, in data set [3] (FeSSIF, pH 5.0, 37° C.), the “XRPD of solid after solubility test” value is “Form F”, the “final pH” value was 5.0 and the Solubility turned out to be 240 µg/mL (≈ 704 µM).
Turning to `Nc1nc(=O)n(-c2ccccc2Cl)c2nc(C(F)(F)F)ccc12` [Form L, 4-Amino-1-(2-chlorophenyl)-7-(trifluoromethyl)pyrido[2,3-d]pyrimidin-2(1H)-one], in data set [1] (25° C.), the “humidity at which water is absorbed again / water content restored (conversion back to the hydrate)” value is no less than 80 % RH. Further, the “form after exposure to 25° C./80% RH for 40 min” value in data set [2] (variable humidity XRPD) was “Form C”. For the same compound, the “form obtained on heating to 250° C.” value in data set [2] (variable temperature XRPD, N2 protection) is recorded as “solid state Form V”.
For `Nc1nc(=O)n(-c2ccccc2Cl)c2nc(C(F)(F)F)ccc12` [Form R, 4-Amino-1-(2-chlorophenyl)-7-(trifluoromethyl)pyrido[2,3-d]pyrimidin-2(1H)-one], the “impurity from HPLC result” value in data set [5] is on record as “about 68.5%”.
For `Nc1nc(=O)n(-c2ccccc2Cl)c2nc(C(F)(F)F)ccc12` [Form S, 4-Amino-1-(2-chlorophenyl)-7-(trifluoromethyl)pyrido[2,3-d]pyrimidin-2(1H)-one], in data set [1] (25° C.), the “humidity at which water is absorbed again / water content restored (conversion back to the hydrate)” value is on record as “higher than 20 % RH”. In addition, the “form after exposure to ambient condition for 3 h” value in data set [2] (XRPD, 25° C.) is “Form D”.
As for `Nc1nc(=O)n(-c2ccccc2Cl)c2nc(C(F)(F)F)ccc12` [Form U, 4-Amino-1-(2-chlorophenyl)-7-(trifluoromethyl)pyrido[2,3-d]pyrimidin-2(1H)-one], in data set [2] (after heating to 250° C.), the “form after cooling to 25° C.” value is “Form T”.

The values above are taken from patent US20260193254A1, “2-OXOQUINAZOLINE CRYSTALLINE FORMS” (IDEAYA Biosciences, Inc., priority 2022, published 2026).
